Measurements from ChEMBL document CHEMBL1201862, “PubChem BioAssay data set” (2004).
The source made the active and inactive calls.

Tests used:
Type in all cases: functional
[1] = biological target: Dual specificity protein kinase CLK2 (Homo sapiens, UniProt P49760)
[2] = biological target: Tyrosine-protein kinase JAK2 (Homo sapiens, UniProt O60674);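 also: JAK2 tested as one member of a kinase panel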
[3] = biological target: Proto-oncogene tyrosine-protein kinase receptor Ret (Homo sapiens, UniProt P07949);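 also: measured within a kinome-wide profiling panel, RET as the panel member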
[4] = biological target: Tyrosine-protein kinase receptor TYRO3 (Homo sapiens, UniProt Q06418);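 also: TYRO3 value obtained as one member of a kinome-wide profiling panel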
[5] = biological target: Tyrosine-protein kinase Lck (Homo sapiens, UniProt P06239);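 also: lck was assayed as one member of a kinase panel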
Activin receptor type-1 = Activin receptor type-1 (Homo sapiens, UniProt Q04771); assay: Navigating the Kinome. Panel member name: ACVR1
[6] = biological target: Cell division cycle 7-related protein kinase (Homo sapiens, UniProt O00311);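 also: value obtained from a kinome-wide kinase panel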
[7] = biological target: Mitogen-activated protein kinase 9 (Homo sapiens, UniProt P45984);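 also: value from a kinome panel profiling assay, MAPK9 panel entry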
[8] = biological target: Homeodomain-interacting protein kinase 2 (Homo sapiens, UniProt Q9H2X6);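 also: measured within a kinome-wide kinase profiling panel, HIPK2 being one panel member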
[9] = biological target: High affinity nerve growth factor receptor (Homo sapiens, UniProt P04629);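 also: NTRK1 tested as one member of a kinome-wide profiling panel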
[10] = biological target: Glycogen synthase kinase-3 alpha (Homo sapiens, UniProt P49840);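 also: GSK3A result taken from a broad kinome-wide kinase panel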
[11] = biological target: Mitogen-activated protein kinase kinase kinase kinase 2 (Homo sapiens, UniProt Q12851);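 also: measured as one member of a kinome-wide kinase panel, with MAP4K2 as the panel entry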
[12] = biological target: Hepatocyte growth factor receptor (Homo sapiens, UniProt P08581);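 also: kinase panel profiling across the kinome, with MET as the panel member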
[13] = biological target: Receptor-type tyrosine-protein kinase FLT3 (Homo sapiens, UniProt P36888);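 also: FLT3 was tested as one member of a kinome-wide kinase panel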
[14] = biological target: Tyrosine-protein kinase ABL1 (Homo sapiens, UniProt P00519)
[15] = biological target: Insulin-like growth factor 1 receptor (Homo sapiens, UniProt P08069); assay: Navigating the Kinome. Panel member name: IGF1R
[16] = biological target: cAMP-dependent protein kinase catalytic subunit PRKX (Homo sapiens, UniProt P51817)
Focal adhesion kinase 1 = Focal adhesion kinase 1 (Homo sapiens, UniProt Q05397);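 also: measured as one member of a kinome panel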
[17] = biological target: Maternal embryonic leucine zipper kinase (Homo sapiens, UniProt Q14680)
[18] = biological target: Platelet-derived growth factor receptor alpha (Homo sapiens, UniProt P16234); assay: Navigating the Kinome. Panel member name: PDGFRA
[19] = biological target: Leucine-rich repeat serine/threonine-protein kinase 2 (Homo sapiens, UniProt Q5S007);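 also: value from a broad kinome-wide panel profiling study in which LRRK2 was one of the kinases tested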
Aurora kinase B = Aurora kinase B (Homo sapiens, UniProt Q96GD4)
[20] = biological target: Mitogen-activated protein kinase kinase kinase kinase 5 (Homo sapiens, UniProt Q9Y4K4);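 also: measured as one member of a kinome-spanning kinase panel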
[21] = biological target: Glycogen synthase kinase-3 beta (Homo sapiens, UniProt P49841);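 also: value comes from a broad kinome profiling panel, with GSK3B as the panel member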
[22] = biological target: Cyclin-dependent kinase 9 (Homo sapiens, UniProt P50750);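 also: value from the CDK9 entry of a kinome-spanning kinase panel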
[23] = biological target: cAMP-dependent protein kinase catalytic subunit alpha (Homo sapiens, UniProt P17612)
[24] = biological target: Macrophage-stimulating protein receptor (Homo sapiens, UniProt Q04912); assay: Navigating the Kinome. Panel member name: MST1R
[25] = biological target: Dual specificity tyrosine-phosphorylation-regulated kinase 1A (Homo sapiens, UniProt Q13627);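 also: measured against DYRK1A as one member of a broad kinome profiling panel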
[26] = biological target: Inhibitor of nuclear factor kappa-B kinase subunit epsilon (Homo sapiens, UniProt Q14164); assay: Navigating the Kinome. Panel member name: IKBKE
[27] = biological target: Calcium/calmodulin-dependent protein kinase type II subunit alpha (Homo sapiens, UniProt Q9UQM7); assay: Navigating the Kinome. Panel member name: CAMK2A
[28] = biological target: Leukocyte tyrosine kinase receptor (Homo sapiens, UniProt P29376); assay: Navigating the Kinome. Panel member name: LTK
[29] = biological target: Serine/threonine-protein kinase 3 (Homo sapiens, UniProt Q13188);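 also: measured as one member of a kinome-wide kinase panel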
[30] = biological target: cGMP-dependent protein kinase 1 (Homo sapiens, UniProt Q13976);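 also: value from a kinome panel screen with PRKG1 as the panel member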
[31] = biological target: Dual specificity tyrosine-phosphorylation-regulated kinase 3 (Homo sapiens, UniProt O43781);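 also: measured as one member of a broad kinase panel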

Sequence of Leukocyte tyrosine kinase receptor (P29376 whole entry): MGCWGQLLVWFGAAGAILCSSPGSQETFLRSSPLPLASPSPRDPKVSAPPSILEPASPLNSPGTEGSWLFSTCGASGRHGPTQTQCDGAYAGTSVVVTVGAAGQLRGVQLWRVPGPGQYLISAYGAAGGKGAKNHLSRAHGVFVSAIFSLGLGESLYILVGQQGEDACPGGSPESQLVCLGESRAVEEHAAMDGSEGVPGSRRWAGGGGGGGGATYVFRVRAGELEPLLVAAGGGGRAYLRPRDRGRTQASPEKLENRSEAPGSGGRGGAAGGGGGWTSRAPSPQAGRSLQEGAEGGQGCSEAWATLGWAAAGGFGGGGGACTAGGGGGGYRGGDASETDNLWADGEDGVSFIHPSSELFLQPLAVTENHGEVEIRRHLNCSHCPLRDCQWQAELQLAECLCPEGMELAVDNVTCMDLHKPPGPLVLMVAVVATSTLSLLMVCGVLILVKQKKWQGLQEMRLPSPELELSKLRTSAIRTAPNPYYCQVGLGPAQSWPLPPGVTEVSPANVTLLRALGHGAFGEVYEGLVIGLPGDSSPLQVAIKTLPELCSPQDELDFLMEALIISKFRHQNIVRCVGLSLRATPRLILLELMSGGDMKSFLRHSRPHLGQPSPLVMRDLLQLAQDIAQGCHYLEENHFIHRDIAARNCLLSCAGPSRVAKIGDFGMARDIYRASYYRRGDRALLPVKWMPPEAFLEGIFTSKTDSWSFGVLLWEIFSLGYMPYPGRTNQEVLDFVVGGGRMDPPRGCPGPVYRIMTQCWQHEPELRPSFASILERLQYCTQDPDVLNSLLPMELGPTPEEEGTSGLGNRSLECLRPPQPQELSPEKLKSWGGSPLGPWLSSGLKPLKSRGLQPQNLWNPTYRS
Sequence of Cyclin-dependent kinase 9 (P50750 whole entry): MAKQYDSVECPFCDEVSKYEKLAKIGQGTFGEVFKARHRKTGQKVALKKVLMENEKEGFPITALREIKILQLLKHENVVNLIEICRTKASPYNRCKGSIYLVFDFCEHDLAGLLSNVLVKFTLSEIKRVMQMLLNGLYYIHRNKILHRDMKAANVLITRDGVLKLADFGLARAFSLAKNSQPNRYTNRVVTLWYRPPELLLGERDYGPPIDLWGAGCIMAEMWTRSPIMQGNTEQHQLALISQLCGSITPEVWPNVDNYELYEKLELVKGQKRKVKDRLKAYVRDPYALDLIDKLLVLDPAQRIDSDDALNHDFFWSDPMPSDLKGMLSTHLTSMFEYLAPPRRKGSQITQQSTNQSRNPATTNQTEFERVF
Sequence of Mitogen-activated protein kinase 9 (P45984 whole entry): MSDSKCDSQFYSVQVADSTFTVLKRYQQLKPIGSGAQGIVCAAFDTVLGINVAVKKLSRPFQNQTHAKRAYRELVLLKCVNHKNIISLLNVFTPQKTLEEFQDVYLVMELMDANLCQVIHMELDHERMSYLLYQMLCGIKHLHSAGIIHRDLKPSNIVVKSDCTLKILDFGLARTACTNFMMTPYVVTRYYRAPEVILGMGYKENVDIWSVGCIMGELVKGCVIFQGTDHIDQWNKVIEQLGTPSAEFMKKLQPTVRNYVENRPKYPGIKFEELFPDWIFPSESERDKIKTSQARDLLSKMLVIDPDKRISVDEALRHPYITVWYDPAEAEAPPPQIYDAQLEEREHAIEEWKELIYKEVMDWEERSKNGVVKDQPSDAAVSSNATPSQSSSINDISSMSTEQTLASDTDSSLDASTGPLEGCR
Sequence of Tyrosine-protein kinase receptor TYRO3 (Q06418 whole entry): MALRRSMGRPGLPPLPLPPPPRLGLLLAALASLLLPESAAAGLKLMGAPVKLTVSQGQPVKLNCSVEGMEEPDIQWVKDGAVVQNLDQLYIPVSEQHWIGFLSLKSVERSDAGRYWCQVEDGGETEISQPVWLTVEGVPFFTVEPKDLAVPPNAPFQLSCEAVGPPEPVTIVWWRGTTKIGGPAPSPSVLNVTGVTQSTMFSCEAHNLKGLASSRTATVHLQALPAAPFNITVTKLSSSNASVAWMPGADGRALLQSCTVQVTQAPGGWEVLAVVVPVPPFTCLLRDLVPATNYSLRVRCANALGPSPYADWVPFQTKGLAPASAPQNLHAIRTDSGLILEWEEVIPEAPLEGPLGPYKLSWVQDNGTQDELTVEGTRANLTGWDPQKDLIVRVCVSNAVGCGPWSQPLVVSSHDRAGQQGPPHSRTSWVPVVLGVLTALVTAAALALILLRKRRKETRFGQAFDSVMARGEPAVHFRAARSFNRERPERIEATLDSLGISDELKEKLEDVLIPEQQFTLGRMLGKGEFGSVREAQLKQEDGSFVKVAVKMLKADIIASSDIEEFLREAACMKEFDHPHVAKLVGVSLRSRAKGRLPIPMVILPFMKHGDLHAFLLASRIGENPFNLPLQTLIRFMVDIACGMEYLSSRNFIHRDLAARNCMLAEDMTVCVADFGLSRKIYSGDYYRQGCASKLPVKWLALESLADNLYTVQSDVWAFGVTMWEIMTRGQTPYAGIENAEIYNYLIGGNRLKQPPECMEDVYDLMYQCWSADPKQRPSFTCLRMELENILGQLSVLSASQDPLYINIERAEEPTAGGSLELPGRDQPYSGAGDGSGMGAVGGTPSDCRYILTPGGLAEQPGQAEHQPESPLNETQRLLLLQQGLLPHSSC
Sequence of Tyrosine-protein kinase Lck (P06239 whole entry): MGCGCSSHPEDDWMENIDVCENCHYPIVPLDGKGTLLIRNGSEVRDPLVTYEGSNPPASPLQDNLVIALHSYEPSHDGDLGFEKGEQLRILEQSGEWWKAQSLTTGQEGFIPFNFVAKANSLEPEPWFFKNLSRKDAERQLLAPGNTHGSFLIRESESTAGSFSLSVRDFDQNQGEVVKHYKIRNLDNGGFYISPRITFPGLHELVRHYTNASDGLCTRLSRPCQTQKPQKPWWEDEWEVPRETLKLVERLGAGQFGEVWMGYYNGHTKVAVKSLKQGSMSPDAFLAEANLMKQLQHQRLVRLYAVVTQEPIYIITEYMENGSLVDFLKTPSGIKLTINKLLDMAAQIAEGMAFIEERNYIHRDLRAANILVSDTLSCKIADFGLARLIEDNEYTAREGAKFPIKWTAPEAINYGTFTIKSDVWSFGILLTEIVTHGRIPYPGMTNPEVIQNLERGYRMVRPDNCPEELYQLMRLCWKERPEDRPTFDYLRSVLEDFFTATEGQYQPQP
Sequence of Proto-oncogene tyrosine-protein kinase receptor Ret (P07949 whole entry): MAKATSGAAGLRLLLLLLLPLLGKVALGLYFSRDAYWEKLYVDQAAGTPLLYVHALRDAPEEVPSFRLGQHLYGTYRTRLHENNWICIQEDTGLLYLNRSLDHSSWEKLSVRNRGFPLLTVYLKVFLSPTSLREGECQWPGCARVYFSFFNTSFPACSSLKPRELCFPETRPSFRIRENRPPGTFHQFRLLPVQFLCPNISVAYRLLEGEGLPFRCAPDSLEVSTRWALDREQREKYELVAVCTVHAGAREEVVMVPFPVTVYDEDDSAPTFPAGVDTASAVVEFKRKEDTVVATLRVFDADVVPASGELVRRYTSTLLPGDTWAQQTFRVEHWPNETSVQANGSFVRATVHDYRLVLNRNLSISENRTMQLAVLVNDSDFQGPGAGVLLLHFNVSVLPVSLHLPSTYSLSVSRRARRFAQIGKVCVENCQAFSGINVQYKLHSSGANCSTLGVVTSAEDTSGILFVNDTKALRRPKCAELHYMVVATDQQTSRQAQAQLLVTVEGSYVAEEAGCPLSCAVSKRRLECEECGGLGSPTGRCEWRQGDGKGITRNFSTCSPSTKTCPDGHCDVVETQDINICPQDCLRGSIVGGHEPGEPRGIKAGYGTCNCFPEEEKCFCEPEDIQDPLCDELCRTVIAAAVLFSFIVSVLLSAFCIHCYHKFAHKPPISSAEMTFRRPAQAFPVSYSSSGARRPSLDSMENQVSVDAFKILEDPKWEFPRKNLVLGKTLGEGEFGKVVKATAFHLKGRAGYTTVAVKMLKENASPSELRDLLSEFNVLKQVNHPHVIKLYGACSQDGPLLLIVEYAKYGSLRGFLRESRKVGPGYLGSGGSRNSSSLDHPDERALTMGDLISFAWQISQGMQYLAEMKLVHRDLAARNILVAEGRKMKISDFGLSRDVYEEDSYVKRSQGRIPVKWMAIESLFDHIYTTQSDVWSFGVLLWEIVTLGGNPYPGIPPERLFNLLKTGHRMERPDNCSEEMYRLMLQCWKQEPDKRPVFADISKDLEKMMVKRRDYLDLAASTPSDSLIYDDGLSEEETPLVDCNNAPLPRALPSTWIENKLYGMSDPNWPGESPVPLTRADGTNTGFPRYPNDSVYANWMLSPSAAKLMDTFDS
Sequence of Cell division cycle 7-related protein kinase (O00311 whole entry): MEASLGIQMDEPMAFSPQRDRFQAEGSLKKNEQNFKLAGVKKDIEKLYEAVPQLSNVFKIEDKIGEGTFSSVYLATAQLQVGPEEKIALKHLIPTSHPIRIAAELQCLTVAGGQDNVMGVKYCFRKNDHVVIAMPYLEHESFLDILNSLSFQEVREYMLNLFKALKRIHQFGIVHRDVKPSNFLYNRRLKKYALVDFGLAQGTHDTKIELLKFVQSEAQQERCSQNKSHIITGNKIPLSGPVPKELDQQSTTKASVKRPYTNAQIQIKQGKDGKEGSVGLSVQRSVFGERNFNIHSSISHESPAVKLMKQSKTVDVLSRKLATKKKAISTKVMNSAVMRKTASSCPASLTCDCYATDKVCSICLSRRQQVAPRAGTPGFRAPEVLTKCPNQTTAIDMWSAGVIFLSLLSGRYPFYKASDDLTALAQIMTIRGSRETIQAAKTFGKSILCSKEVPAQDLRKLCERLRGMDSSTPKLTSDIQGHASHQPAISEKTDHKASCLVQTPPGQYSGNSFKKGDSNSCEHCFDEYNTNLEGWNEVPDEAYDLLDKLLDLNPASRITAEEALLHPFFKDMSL

| Ki [1] | Ki [2] | Ki [3] | Ki [4] | Ki [5] | Ki (Activin receptor type-1) | Ki [6] | Ki [7] | Ki [8] | Ki [9] | Ki [10] | Ki [11] | Ki [12] | Ki [13] | Ki [14] | Ki [15] | Ki [16] | Ki (Focal adhesion kinase 1) | Ki [17] | Ki [18] | SMILES | other results |
| --- | --- | --- | --- | --- | --- | --- | --- | --- | --- | --- | --- | --- | --- | --- | --- | --- | --- | --- | --- | --- | --- |
| 126 nM (active) | > 2510 nM (inactive) | 2000 nM (active) | > 3160 nM (inactive) | > 6310 nM (inactive) | 3980 nM (active) | 3.16 nM (active) | 1000 nM (active) | 100 nM (active) | > 3160 nM (inactive) | 3.98 nM (active) | > 2510 nM (inactive) | > 2510 nM (inactive) | > 2000 nM (inactive) | > 2510 nM (inactive) | > 2510 nM (inactive) | 316 nM (active) | > 6310 nM (inactive) | 398 nM (active) | > 2510 nM (inactive) | O=C(Nc1n[nH]c2ccc(-c3cn(Cc4ccccc4)nn3)cc12)c1cc(F)ccc1F | Ki [19]: 1260 nM (active); Ki (Aurora kinase B): > 3980 nM (inactive); Ki [20]: 794 nM (active); Ki [21]: 2 nM (active); Ki [22]: 398 nM (active); Ki [23]: > 2510 nM (inactive); Ki [24]: 2510 nM (active); Ki [25]: 50.1 nM (active); Ki [26]: 1260 nM (active); Ki [27]: > 3980 nM (inactive); Ki [28]: > 2510 nM (inactive); Ki [29]: > 3160 nM (inactive) |
| – | – | – | – | > 6310 nM (inactive) | – | – | – | – | – | – | – | – | – | – | – | – | > 6310 nM (inactive) | – | – | CS(=O)(=O)Nc1ccc(Nc2ccc3[nH]nc(N)c3c2)cc1 | – |
| > 6310 nM (inactive) | > 1580 nM (inactive) | > 1580 nM (inactive) | > 1580 nM (inactive) | – | > 3980 nM (inactive) | 100 nM (active) | > 3980 nM (inactive) | 63.1 nM (active) | > 1580 nM (inactive) | > 2000 nM (inactive) | > 2000 nM (inactive) | > 2510 nM (inactive) | > 2510 nM (inactive) | > 1580 nM (inactive) | > 1260 nM (inactive) | > 1580 nM (inactive) | – | 200 nM (active) | > 2510 nM (inactive) | CS(=O)(=O)N(Cc1ccc2[nH]c(=O)c3cccn3c2c1)C1CC1 | Ki [30]: 251 nM (active); Ki [31]: 158 nM (active); Ki [19]: > 2510 nM (inactive); Ki (Aurora kinase B): > 1260 nM (inactive); Ki [20]: 1580 nM (active); Ki [21]: > 2000 nM (inactive); Ki [22]: > 1580 nM (inactive); Ki [23]: > 3980 nM (inactive); Ki [24]: > 3980 nM (inactive); Ki [25]: > 3980 nM (inactive); Ki [26]: > 3160 nM (inactive); Ki [27]: > 3980 nM (inactive); Ki [28]: > 2510 nM (inactive); Ki [29]: > 7940 nM (inactive) |
